Test results as given in PubChem BioAssay (NCI).
“And” between values parts separate entries of the source, which are not always exact repeats. Identical values can stand only once.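 Dose response: 5 concentrations. Exposure: 48 h. Format: 96-well plates. Endpoint: linear interpolation; highest concentration if not reached. Here, GI50 denotes the concentration required for 50% inhibition of growth. At the TGI there is no net growth.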 Where a SMILES comes first, the peptide text is derived from it. The star is where a group is joined. Cbz = O=C(OCc1ccccc1)*

Experiments:
Experiment in all cases: DTP human tumour cell line panel, 48 h
[1] = system: SN12C renal
[2] = system: MDA-MB-231 breast
[3] = system: OVCAR-5 ovarian
[4] = system: HCT-116 colon
[5] = system: A498 renal
[6] = system: UO-31 renal
[7] = system: U251 CNS
[8] = system: MCF7 breast
[9] = system: KM12 colon
[10] = system: OVCAR-8 ovarian
[11] = system: CAKI-1 renal
[12] = system: NCI-H522 lung
[13] = system: HOP-62 NSCLC
[14] = system: MALME-3M melanoma
[15] = system: A549 NSCLC
[16] = system: SR leukemia
[17] = system: SW-620 colon
[18] = system: HT29 colon
[19] = system: PC-3 prostate

| SMILES | TGI [1] | TGI [2] | TGI [3] | TGI [4] | TGI [5] | TGI [6] | TGI [7] | TGI [8] | TGI [9] | TGI [10] | TGI [11] | TGI [12] | TGI [13] | TGI [14] | TGI [15] | TGI [16] | TGI [17] | TGI [18] | TGI [19] | GI50 [9] |
| --- | --- | --- | --- | --- | --- | --- | --- | --- | --- | --- | --- | --- | --- | --- | --- | --- | --- | --- | --- | --- |
| CCOC(=O)C(C)NC(=O)C(C)NC(=O)C(C)NC(=O)C(C)NC(=O)C(C)NC(=O)C(C)NC(=O)C(C)NC(=O)OCc1ccccc1 (centres undefined) (Cbz-AAAAAAA-OEt; configuration not given here) | > 100 µM | > 100 µM | > 100 µM | > 100 µM | > 100 µM | > 100 µM | > 100 µM | > 100 µM | > 100 µM | > 100 µM | > 100 µM | > 100 µM | > 100 µM | > 100 µM | > 100 µM | > 100 µM | > 100 µM | > 100 µM | > 100 µM | – |
| CSc1c(C#N)c2n(c3ccccc3[n+]2C)c2ncccc12 | 67.5 µM | 46.9 µM | 84.6 µM | > 100 µM | 84.6 µM | 50.1 µM | 70.8 µM | 42.8 µM | > 100 µM | 73.4 µM | > 100 µM | 48.6 µM | > 100 µM | 40.3 µM | 77 µM | > 100 µM | > 100 µM | > 100 µM | 45.3 µM | – |
| O=C1OC(CN2CCN(c3ccccc3)CC2)CN1C(=S)Nc1ccccc1 (centres undefined) | > 100 µM | > 100 µM | > 100 µM | > 100 µM | > 100 µM | > 100 µM | > 100 µM | > 100 µM | > 100 µM | > 100 µM | > 100 µM | > 100 µM | > 100 µM | > 100 µM | > 100 µM | > 100 µM | > 100 µM | > 100 µM | > 100 µM | – |
| CCOC(=O)c1nc2cc(C(F)(F)F)ccc2nc1Nc1ccc(Cl)c(Cl)c1 | > 100 µM | > 100 µM | > 100 µM | > 100 µM | > 100 µM | > 100 µM | > 100 µM | > 100 µM | > 100 µM | > 100 µM | > 100 µM | > 100 µM | > 100 µM | > 100 µM | > 100 µM | > 100 µM | > 100 µM | > 100 µM | > 100 µM | – |
| C=CCn1c(=O)c(C)cn(/C(=C/C(=O)OCC)C(=O)OCC)c1=O | 29.7 µM | 29.3 µM | 30.2 µM | 21.5 µM | 45.1 µM | 29.1 µM | 28.4 µM | 18.9 µM | 36 µM | 45.9 µM | 3.65 µM | 10.9 µM | > 100 µM | 29.2 µM | 87.5 µM | 13.3 µM | 15.5 µM | 25.8 µM | 28.9 µM | – |
| N#Cc1c(NC(=S)NCc2ccccc2)sc2c1CCN(N1CCc3c(sc(NC(=S)NCc4ccccc4)c3C#N)C1)C2 | > 100 µM | > 100 µM | > 100 µM | > 100 µM | > 100 µM | > 100 µM | > 100 µM | > 100 µM | > 100 µM | > 100 µM | > 100 µM | > 100 µM | > 100 µM | > 100 µM | > 100 µM | > 100 µM | > 100 µM | > 100 µM | > 100 µM | – |
| CN1C[C@@H]2CCCN2P1Oc1cccc2cccnc12 (some centres undefined) | > 100 µM | > 100 µM | > 100 µM | 89 µM | > 100 µM | > 100 µM | > 100 µM | 65.4 µM | > 100 µM | > 100 µM | > 100 µM | > 100 µM | > 100 µM | > 100 µM | > 100 µM | > 100 µM | > 100 µM | > 100 µM | > 100 µM | – |
| Cc1ccc(C2=Nc3c(N)nc(N)nc3NC(c3ccccc3)C2)cc1 (centres undefined) | 23.7 µM and 32 µM | 19.7 µM and 28.9 µM | 30.5 µM and 33.5 µM | 17.5 µM and 17.6 µM | 23.6 µM | 25.2 µM and 25.6 µM | 24.6 µM and 26.4 µM | 22.5 µM and 21.5 µM | 13.8 µM and 33.7 µM | 29.3 µM and 28.8 µM | 24.7 µM and 29.5 µM | 16 µM and 30.9 µM | 25.5 µM and 22.3 µM | 23.6 µM and 24.5 µM | 26.3 µM and 23.6 µM | > 100 µM | 15.2 µM and 16.2 µM | 14.1 µM and 14.8 µM | 22.9 µM and 24 µM | 3.97 µM and 18 µM |
| COC(=O)C1=C(C)NC(C)=C([N+](=O)[O-])C1c1cccc(NO)c1 (centres undefined) | > 30.8 µM | 17 µM | > 100 µM | 10.5 µM | 70 µM | 24.1 µM | > 100 µM | 27.2 µM | 6.85 µM | 37.5 µM | > 52.7 µM | 13.9 µM | > 100 µM | 22.9 µM | > 89.6 µM | 8.93 µM | 16.5 µM | 9.79 µM | 26.1 µM | – |
| C=C(Cl)C(Cl)(CBr)CCC(Cl)C(C)(C)Cl (centres undefined) | 22.5 µM | 5.83 µM | 7.41 µM | 2.02 µM | 4.04 µM | 5.15 µM | 1.69 µM | 3.56 µM | 1.94 µM | 13 µM | 2.48 µM | 23 µM | 4.04 µM | 22.8 µM | 12.7 µM | 39.4 µM | 4.75 µM | 0.968 µM | 3.36 µM | – |
| CN(/N=C\c1ccc2ccccc2c1)C1=NCCCCN1 | 45.7 µM | 64.5 µM | > 100 µM | > 100 µM | 56.6 µM | 55.8 µM | 44.6 µM | 48.9 µM | 52.1 µM | > 100 µM | 29.9 µM | 34 µM | 90.7 µM | 30.1 µM | 58.3 µM | 68.7 µM | 37.8 µM | 38.2 µM | 36 µM | – |
| CCC(=O)NCCc1c[nH]c2ccc(OC)cc12 | > 100 µM | > 100 µM | > 100 µM | > 100 µM | > 100 µM | > 100 µM | > 100 µM | > 100 µM | > 100 µM | > 100 µM | > 100 µM | > 100 µM | > 100 µM | > 100 µM | > 100 µM | > 100 µM | > 100 µM | > 100 µM | > 100 µM | – |
